According to publication PMC3289549 (Biochemistry, 2011):
“Also recorded” adds a separate entry of the source. Where two headings read alike, the source gives them in different places.

Assays:
Pin1 [1] = biological target: T1, Pin1 (Homo sapiens, UniProt Q13526); assay: α-chymotrypsin protease-coupled Pin1 inhibition assay; assay type: biochemical; conditions: for IC50: protease-coupled assay, substrate succinyl–Ala–Glu–cis-Pro–Phe–pNA, 4 °C, duplicate
Aqueous solubility = assay type: physicochemical; conditions: qualitative
Pin1 [2] = biological target: T1, Pin1; conditions: cited from earlier work
Pin1 [3] = biological target: T1, Pin1; conditions: cited from earlier work; remark: listed apart in the source

T1 sequence (Q13526 whole entry): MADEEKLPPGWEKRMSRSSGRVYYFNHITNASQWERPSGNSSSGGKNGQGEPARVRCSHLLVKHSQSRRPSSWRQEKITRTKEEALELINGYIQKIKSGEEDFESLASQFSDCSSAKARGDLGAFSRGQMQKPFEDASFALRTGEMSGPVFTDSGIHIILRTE

In the case of `CC(=O)N[C@@H](COP(=O)(O)O)CN1CCCCC1C(=O)NCCc1c[nH]c2ccccc12` (mixture of isomers) [Compound 4a, Ac–pSer–Ψ[CH2N]-(R/S)Pip ^a–tryptamine], the IC50 (Pin1 [1]) is reported as 16 ± 2 µM and the “fold more potent than diastereomer 4b” value (Pin1 [1]; ratio of IC50 values vs 4b) is reported as “approximately 12 fold”.
`CC(=O)N[C@@H](COP(=O)(O)O)CN1CCCCC1C(=O)NCCc1c[nH]c2ccccc12` (mixture of isomers) [Compound 4b, Ac–pSer–Ψ[CH2N]-(R/S)Pip ^a–tryptamine] showed an IC50 (Pin1 [1]) of 189 ± 17 µM.
With `O=C(N[C@@H](COP(=O)(O)O)CN1CCC[C@H]1C(=O)NCCc1c[nH]c2ccccc12)OCC1c2ccccc2-c2ccccc21` [Compound 1, Fmoc–pSer–Ψ[CH2N]-Pro–tryptamine] the IC50 (Pin1 [1]) was 6.3 ± 0.4 µM, the “fold better inhibition than compound 3” value (Pin1 [1]; ratio of IC50 values vs 3) was 5 fold and the aqueous solubility (Aqueous solubility) was “very poor”.
For `CC(OP(=O)(O)O)C(CN1CCCC1C(=O)NCCc1c[nH]c2ccccc12)NC(=O)OCC1c2ccccc2-c2ccccc21` (stereo not shown) [Compound 3, Fmoc–pThr–Ψ[CH2N]-Pro–tryptamine], the IC50 (Pin1 [1]) was 30 ± 2 µM.
In the case of `O=C(NC(C=C1CCCC1C(=O)NCCc1c[nH]c2ccccc12)COP(=O)(O)O)OCC1c2ccccc2-c2ccccc21` (stereo not shown) [Fmoc-pSer–Ψ[(Z)CH=C]Pro–2-(indol-3-yl)-ethylamine], the IC50 (Pin1 [2]; similarly substituted ground-state (cis-alkene) analogue) is given as 28.3 µM.
In the case of “Ac–Lys(N-biotinoyl)–Ala–Ala–Bth–D-Thr(PO3H2)–Pip–Nal–Gln–NH2”, the Ki (Pin1 [3]) is listed as 0.00021 µM.
With “Ac–pSer–Ψ[CH2N]-Pro–tryptamine [Compound 2]” the IC50 (Pin1 [1]) was 12 ± 2 µM, the “fold less potent than inhibitor 1” value (Pin1 [1]; ratio of IC50 values vs 1) was 2 fold and the “fold better than the similarly substituted ketone” value (Pin1 [1]; ratio of IC50 values vs Ac–pSer–Ψ[COCH]-Pip–2-(indol-3-yl)-ethylamine) was 5 fold. The “fold better than the similarly substituted α-ketoamide inhibitor” value (Pin1 [1]; ratio of IC50 values vs Ac–pSer–Ψ[COCON]-Pro–2-(naphth-2-yl)-ethylamine) was 6 fold and the aqueous solubility (Aqueous solubility) was “improved aqueous solubility; also recorded: improved the water solubility”.
In the case of “Ac–pSer–Ψ[COCH]-Pip–2-(indol-3-yl)-ethylamine”, the IC50 (Pin1 [2]; similarly substituted ketone) is listed as 61 µM.
For “Ac–pSer–Ψ[COCON]-Pro–2-(naphth-2-yl)-ethylamine”, the IC50 (Pin1 [2]; similarly substituted α-ketoamide inhibitor) is given as 100 µM.
